The values that follow come from patent US12628827B2, “Isoxazoline compounds and their use as pest control agents” (PI INDUSTRIES LIMITED, priority 2020, dated 2026).

Type in all cases: in vivo
One test deals with Tetranychus urticae. In words: Tetranychus urticae leaf dip method. As to conditions: foliar, French bean leaves, third instar nymphs, 72 h after release, dead + moribund vs untreated control, read-out: percent mortality. The procedure: (§1) The leaf dip method was used for testing, wherein the required quantity of the compound was weighed and dissolved in a tube containing solvent solution. The tube was put on a vortex at 2000 rpm for 90 min for proper mixing, then, diluted with 0.01% Triton-X solution to the desired test concentration. French bean leaves were dipped in the compound solution for 10 seconds, shade dried for 20 min and then placed, with the abaxial side of the leaf up, in single cells of a bio-assay tray containing 4 mL of a solidified 1% agar-agar solution. Known numbers of third instar nymphs were released into the cell with the treated leaf and the cell was covered with a perforated lid for better aeration. The trays were kept in a plant growth chamber at a temperature of 25° C. and a relative humidity of 70%. Observations on dead, moribund and alive nymphs were recorded 72 h after the release. Percent mortality was calculated by combining dead and moribund nymphs and comparing the result with the one of the untreated control. The compounds 1 2 26 38 40 46 47 48 and 49 recorded ≥70 percent mortality @ 300 PPM.

The test system of test [1] is Amrasca biguttulla biguttulla. In words: Amrasca biguttulla biguttulla leaf dip method. As to conditions: Solanum melongena, foliar, brinjal leaves, second instar nymphs, 72 h after release, dead + moribund vs untreated control, read-out: percent mortality. The procedure:
as §1, with “concentration. Brinjal” for “concentration. French bean”, “of second” for “of third”, “compounds 1,” for “compounds 1”, “2 and” for “2 26 38”, “40” for “40 46 47 48 and 49”

Another test concerns Scirtothrips dorsalis. In words: Scirtothrips dorsalis leaf dip method. As to conditions: foliar, capsicum leaves, second instar nymphs, 72 h after release, dead + moribund vs untreated control, read-out: percent mortality. The procedure:
as §1, with “concentration. Capsicum” for “concentration. French bean”, “of second” for “of third”, “compounds 1,” for “compounds 1”, “2 and” for “2 26 38”, “40” for “40 46 47 48 and 49”

Another test relates to Plutella xylostella. In words: Plutella xylostella leaf dip method. As to conditions: foliar, cabbage leaves, second instar larvae, 72 h after release, dead + moribund vs untreated control, read-out: per cent mortality. The procedure: The leaf dip method was used for testing, wherein the required quantity of the compound was weighed and dissolved in a tube containing solvent solution. The tube was put on a vortex at 2000 rpm for 90 min for proper mixing, then, diluted with a 0.01% Triton-X solution to the desired test concentration. Cabbage leaves were dipped in the compound solution for 10 seconds, shade dried for 20 min and then transferred into the cells of bioassay trays. A single second instar larva was released into each cell and the tray was covered with a lid. The bio-assay trays were then kept under laboratory conditions at a temperature of 25° C. and a relative humidity of 70%. Observations on dead, moribund and alive larvae were recorded 72 h after the release. Percent mortality was calculated by combining dead and moribund larvae and comparing the result to the one of the untreated control. The compounds, […]

For the compound `Cc1cc(C2=NOC(c3cc(Cl)c(F)c(Cl)c3)(C(F)(F)F)C2)ccc1C(=O)Nc1nc(C(F)(F)F)n(C)n1` (stereo not shown) [Compound 1, 4-(5-(3,5-dichloro-4-fluorophenyl)-5-(trifluoromethyl)-4,5-dihydroisoxazol-3-yl)-2-methyl-N-(1-methyl-5-(trifluoromethyl)-1H-1,2,4-triazol-3-yl)benzamide], the mortality at 300 ppm (in the test with Tetranychus urticae; in test [1]; in the test on Scirtothrips dorsalis) was no less than 70% throughout.

As for `Cc1cc(C2=NOC(c3cc(Cl)cc(Cl)c3)(C(F)(F)F)C2)ccc1C(=O)Nc1nc(C(F)(F)F)n(C)n1` (stereo not shown) [Compound 2, 4-(5-(3,5-dichlorophenyl)-5-(trifluoromethyl)-4,5-dihydroisoxazol-3-yl)-2-methyl-N-(1-methyl-5-(trifluoromethyl)-1H-1,2,4-triazol-3-yl)benzamide], the mortality at 300 ppm (in the test with Tetranychus urticae; in test [1]; in the test on Scirtothrips dorsalis) was no less than 70% each time.

In the case of `Cc1cc(C2=NOC(c3cc(Cl)c(F)c(Cl)c3)(C(F)(F)F)C2)ccc1C(=O)Nc1nc(C(C)C)n(C)n1` (stereo not shown) [Compound 26, 4-(5-(3,5-dichloro-4-fluorophenyl)-5-(trifluoromethyl)-4,5-dihydroisoxazol-3-yl)-N-(5-isopropyl-1-methyl-1H-1,2,4-triazol-3-yl)-2-methylbenzamide], the mortality at 300 ppm in the test with Tetranychus urticae is no less than 70%.

For the compound `Cc1cc(C2=NOC(c3cc(Cl)c(F)c(Cl)c3)(C(F)(F)F)C2)ccc1C(=O)N(CC(F)(F)F)c1nc(C(C)C)n(CC(F)(F)F)n1` (stereo not shown) [Compound 31, 4-(5-(3,5-dichloro-4-fluorophenyl)-5-(trifluoromethyl)-4,5-dihydroisoxazol-3-yl)-N-(5-isopropyl-1-(2,2,2-trifluoroethyl)-1H-1,2,4-triazol-3-yl)-2-methyl-N-(2,2,2-trifluoroethyl)benzamide], the mortality at 300 ppm in the test on Plutella xylostella was no less than 70%.

Regarding `CCc1nc(NC(=O)c2ccc(C3=NOC(c4cc(Cl)cc(Cl)c4)(C(F)(F)F)C3)cc2C)nn1CC` (stereo not shown) [Compound 38, 4-(5-(3,5-dichlorophenyl)-5-(trifluoromethyl)-4,5-dihydroisoxazol-3-yl)-N-(1,5-diethyl-1H-1,2,4-triazol-3-yl)-2-methylbenzamide], in the test with Tetranychus urticae, the mortality at 300 ppm was no less than 70%.

Turning to `Cc1cc(C2=NOC(c3cc(Cl)c(F)c(Cl)c3)(C(F)(F)F)C2)ccc1C(=O)N(C)c1nc(C(F)(F)F)n(C)n1` (stereo not shown) [Compound 40, 4-(5-(3,5-dichloro-4-fluorophenyl)-5-(trifluoromethyl)-4,5-dihydroisoxazol-3-yl)-N,2-dimethyl-N-(1-methyl-5-(trifluoromethyl)-1H-1,2,4-triazol-3-yl)benzamide], the mortality at 300 ppm (with Tetranychus urticae; in test [1]; in the test on Scirtothrips dorsalis) was no less than 70% in each case.

Turning to `Cc1cc(C2=NOC(c3cc(Cl)c(F)c(Cl)c3)(C(F)(F)F)C2)ccc1C(=O)N(C)c1nc(C(C)(F)F)n(C)n1` (stereo not shown) [Compound 46, 4-(5-(3,5-dichloro-4-fluorophenyl)-5-(trifluoromethyl)-4,5-dihydroisoxazol-3-yl)-N-(5-(1,1-difluoroethyl)-1-methyl-1H-1,2,4-triazol-3-yl)-N,2-dimethylbenzamide], the mortality at 300 ppm in the test with Tetranychus urticae was no less than 70%.

Regarding `Cc1cc(C2=NOC(c3cc(Cl)c(F)c(Cl)c3)(C(F)(F)F)C2)ccc1C(=O)Nc1nc(C(C)(F)F)n(C)n1` (stereo not shown) [Compound 47, 4-(5-(3,5-dichloro-4-fluorophenyl)-5-(trifluoromethyl)-4,5-dihydroisoxazol-3-yl)-N-(5-(1,1-difluoroethyl)-1-methyl-1H-1,2,4-triazol-3-yl)-2-methylbenzamide], the mortality at 300 ppm in the test on Tetranychus urticae is no less than 70%.

Turning to `Cc1cc(C2=NOC(c3cc(Cl)cc(Cl)c3)(C(F)(F)F)C2)ccc1C(=O)Nc1nc(C(C)(F)F)n(C)n1` (stereo not shown) [Compound 48, 4-(5-(3,5-dichlorophenyl)-5-(trifluoromethyl)-4,5-dihydroisoxazol-3-yl)-N-(5-(1,1-difluoroethyl)-1-methyl-1H-1,2,4-triazol-3-yl)-2-methylbenzamide], the mortality at 300 ppm with Tetranychus urticae is no less than 70%.

Turning to `Cc1cc(C2=NOC(c3cc(Cl)cc(Cl)c3)(C(F)(F)F)C2)ccc1C(=O)N(C)c1nc(C(C)(F)F)n(C)n1` (stereo not shown) [Compound 49, 4-(5-(3,5-dichlorophenyl)-5-(trifluoromethyl)-4,5-dihydroisoxazol-3-yl)-N-(5-(1,1-difluoroethyl)-1-methyl-1H-1,2,4-triazol-3-yl)-N,2-dimethylbenzamide], the mortality at 300 ppm in the test on Tetranychus urticae was no less than 70%.

As to `Cc1cc(C2=NOC(c3cc(Cl)cc(Cl)c3)(C(F)(F)F)C2)ccc1C(=O)N(CC(F)(F)F)c1nc(CCC(F)(F)F)n(CC(F)(F)F)n1` (stereo not shown) [Compound 83, 4-(5-(3,5-dichlorophenyl)-5-(trifluoromethyl)-4,5-dihydroisoxazol-3-yl)-2-methyl-N-(2,2,2-trifluoroethyl)-N-(1-(2,2,2-trifluoroethyl)-5-(3,3,3-trifluoropropyl)-1H-1,2,4-triazol-3-yl)benzamide], the mortality at 300 ppm with Plutella xylostella was no less than 70%.

As to `Cc1cc(C2=NOC(c3cc(Cl)cc(Cl)c3)(C(F)(F)F)C2)ccc1C(=O)N(CC(F)F)c1nc(CCC(F)(F)F)n(CC(F)F)n1` (stereo not shown) [Compound 87, 4-(5-(3,5-dichlorophenyl)-5-(trifluoromethyl)-4,5-dihydroisoxazol-3-yl)-N-(2,2-difluoroethyl)-N-(1-(2,2-difluoroethyl)-5-(3,3,3-trifluoropropyl)-1H-1,2,4-triazol-3-yl)-2-methylbenzamide], in the test on Plutella xylostella, the mortality at 300 ppm was no less than 70%.

With `Cc1cc(C2=NOC(c3cc(Cl)c(F)c(Cl)c3)(C(F)(F)F)C2)ccc1C(=O)N(CC(F)(F)F)c1nc(CCC(F)(F)F)n(CC(F)(F)F)n1` (stereo not shown) [Compound 111, 4-(5-(3,5-dichloro-4-fluorophenyl)-5-(trifluoromethyl)-4,5-dihydroisoxazol-3-yl)-2-methyl-N-(2,2,2-trifluoroethyl)-N-(1-(2,2,2-trifluoroethyl)-5-(3,3,3-trifluoropropyl)-1H-1,2,4-triazol-3-yl)benzamide], the mortality at 300 ppm in the test on Plutella xylostella was no less than 70%.

In general, mortality refers to the percentage killed.
